The subject of data set [1] is New Zealand White rabbits. Kind of data set: Rabbit cutaneous bleeding time (CBT). The settings on record: for Rabbit BT Ratio: Example 1, at the % P.A. inhibition given.
Protocol: Unanesthetized male New Zealand White rabbits (2.5-3.5 kg) are placed in a standard rabbit restrainer. Ears are shaved and a 20 G Teflon catheter with flowswitch (Viggo) is placed in the medial artery, flushed with saline and locked with 1 ml of heparinized saline (10 m/ml). A 22 G catheter (Abbott) fitted with an injection cap (Medex) is placed in the marginal vein of the same ear. Saline or a GP IIb IIIa receptor antagonist, at a concentration of 1 to 3 mg/ml, is infused via the venous catheter. At time 0, 41% of the dose is given as a bolus over 2 minutes. The remainder is continuously infused over the following 60 minutes. Blood samples (3.2 ml) are collected into syringes without needles via the arterial catheter at -10, -5, 10, 45, and 60 minutes. The first 0.5 ml is discarded and the following 2.7 ml is collected directly into a syringe containing 0.3 ml of 3.8% sodium citrate. The sample is divided into 1.5 ml aliquots and centrifuged at room temperature for 5 seconds at 12,000 G. The resulting platelet rich plasma (PRP) is used to measure ex-vivo platelet aggregation (XPA). At -10 and 60 minutes an additional 1 cml sample is drawn for an automated blood count (Baker instruments). Catheters are flushed and locked after every sample.
CBT is measured at -10, -5, 10, and 45 minutes on the opposite ear, using an automated incision-making instrument (Surgicutt®, ITD). An incision (5mm×1 mm deep) is made on the dorsal surface of the ear at sites not supplied by major blood vessels. Blood is blotted away with absorbent paper placed near the incision site, every 2 to 15 seconds, to a maximum of 15 minutes. Cessation of bleeding is defined as no blood forming at the incision site for 15 seconds. The range of duplicate CBT in 40 normal rabbits was 0.88 to 3.38 minutes.
In data set [2] the target is T1, GP IIb IIIa (Homo sapiens, UniProt P05106+P08514). Kind of data set: Fibrinogen-GP IIb IIIa Receptor ELISA Binding Assay. More on the design: from tissue; host or cells: outdated human platelets. The settings on record: purified human platelet GP IIb IIIa, fibrinogen-coated plates; read-out: ELISA IC50 Fibrinogen GPIIb IIIa. As to the method: The method used is essentially that described in Nachman and Leung (J. Clin. Invest., 69:263-269 [1982]). The GP IIb IIIa is essentially purified as described in Fitzgerald et al., (Anal. Biochem. 151:169-177 [1985]).
Outdated human platelets are washed 3 times with 10 mM tris-HCl, 150 mM NaCl (TBS), 1 mM EDTA, pH 7.5, and centrifuged at 2000×g to pellet cells. Cells are lysed in 5 pellet volumes of TBS, 1% Triton X-100, 1 mM Ca2 Cl2, and followed by centrifugation at 30,000×g. The supernatant fraction is collected and the supernatant is loaded onto a concanavalin-A column, previously equilibrated in TBS, 1 mM Ca2 Cl2, 0.1% Triton, 0.05% NaN3 and eluted with 0.2M α-methylmannoside. Fractions are pooled and loaded onto a heparin-agarose column. The flowthrough is collected and concentration on an Amicon YM 30 filter to a volume of approximately 5-10 mi. The concentrate is then applied to an S-300 column (500 ml) and 6 ml fractions are collected. The GP IIb IlIa containing fractions are collected, pooled, and stored at -80° C.
The purification of fibrinogen is conducted essentially as described by Lipinska et al., (J. Lab. Clin. Med. 507, [1974]). Briefly, a 0.3% w/v solution of human fibrinogen (Kabi #5302) is dissolved in 150 mM NaCl. Saturated (NH4)2 SO4 is added dropwise with stirring to the fibrinogen solution to obtain about 16% saturation. The precipitate is spun down in appropriate size bottles at 2000×g. The supernatant is decanted and the precipitate resuspended in 150 mM NaCl (approximately 50% of the original volume). NH4 SO4 is again added dropwise to obtain 16% saturation. The suspension is spun down and the precipitate is resuspended in Tris-saline in a minimal volume (approximately 5% of the original volume). Any remaining insoluble material is spun down at 2000 rpm in a Sorval type centrifuge and the fibrinogen supernatant is decanted and dialyzed overnight at 4° C. against Tris-saline. Characterization of the fibrinogen is by the Bradford protein assay, SDS-PAGE, and/or Western blotting using well known standard procedures.
Briefly, 96 well plates are coated (Type Nunc 1 Maxisorp™) with 10 μg/ml purified fibrinogen (100 μl/well), and allowed to stand overnight at 4° C. The plates are washed three times with PBS Tween (0.137M NaCl, 0.003M KCl, 0.008M Na2 HPO4, 0.001M KH2 PO4, pH 7.4 at room temperature, 0.05% Tween-20) and blocked for 1 to 2 hours at room temperature with 200 μl/well TNCNT (which is 0.5% BSA, 20mM Tris, pH 7.5 at room temperature, 120 mM NaCl, 0.2% NAN3, 2mM CaCl2, 0.05% Tween 20, 0.5% BSA [Calbiochem RIA grade or better]) on a plate shaker. The plates are again washed three times with PBS/Tween and then 50 μl of sample in TNCNT is added. The mixture is incubated for 15 minutes at room temperature on a plate shaker. The stock solution of purified GP IIb IIIa receptor from human platelets, (0.4-1.0 mg/ml GP IIb IIIa in 0.1% Triton X-100, 1 mM CaCl2, 20 mM Tris, 150 mM NaCl, 0.05% NaN3 in 0.3M N-acetyl glucosamine pH 7.5, stored at -70° C.), is reconstituted to about 40 μg/ml in TNCNT. Fifty μl of this diluted GP IIb IIIa is then added to each well and incubated on a plate shaker at room temperature. After one hour, the plates are washed four times with PBS/Tween and 100 μl of a polyclonal or monoclonal antibody specific for GP IIIa such as AP3 (1 μg/ml) (See e.g. Newman et al., Blood, 65:227-232 [1985]) in ELISA buffer (PBS, 0.5% BSA, 0.05% Tween 20, 0.01% Thimerasol) is added. After a one hour incubation at room temperature on a plate shaker, the samples are washed 4 times with PBS/Tween. One hundred μl of GAM-HRP (horse radish peroxidase conjugate of goat anti-mouse IgG [Pel-Freeze Cat. 715305-1] dissolved in ELISA buffer) previously diluted to 1:10,000 is then added and the samples are incubated 1 hour at room temperature on a plate shaker. […]

For data set [3], the target named is T1, GP IIb IIIa. Kind of data set: GP IIb IIIa -von Willebrand factor (vWF) ELISA Assay. Format: binding. Also on record: GP IIb IIIa, prepared by the method of Fitzgerald et al; from tissue. The settings on record: GP IIb IIIa-coated plates, vWF; read-out: ELISA IC50 GPIIb IIIa vWF. As to the method: Microtiter plates are coated with 1.0 μg/ml GP IIb IIIa, prepared by the method of Fitzgerald et al., (Anal. Biochem. 151:169-177 [1985]) and allowed to incubate overnight in coat buffer. The plates are then washed three times in wash buffer (0.05% Tween 20 in PBS) and 150 μl of assay buffer is added and allowed to incubate for 1-2 hours at room temperature on plate shaker. The plates are washed three times and 50 μl of 2x inhibitor in assay buffer (Assay buffer: 0.5% BSA/50 mM Tris, 100 mM NaCl, 1.0 mM CaCl2, 1.0mM MgCl2, 1.0 mM MnCl2; coat buffer is the same but without BSA) is added. Fifty μl of 4.0 μg/ml vWF (prepared as described by Ledford et al., Thrombosis and Haemostasis, 64(4): 569-575 [1990]) in assay buffer is then added and allowed to incubate for one hour at room temperature on plate-shaker. The plates are washed three times and the antibody mixture is added (1:5000 of mouse anti-vWF and 1:5000 of rabbit-anti-mouse-Fc-HRP, both commercially available) in assay buffer and incubated for 1 hour at room temperature on plate-shaker. Plates are again washed three times and 100 μl of substrate solution (10 mg OPD, 6.5 μl H2 O2, 15 ml phosphate citrate buffer) is added and incubated at room temperature. The color change of OPD/H2 O2 reagent is read at 492 nm with a 405 nm reference wavelength on the filter photometer.

Several values for one entry are separate records, joined by “and”; a condition that tells them apart may be missing. Equal entries are not always repeated. *1 amine or outer side, *2 acyl side, *3 side chain or, on linkers, in order; H or OH if unused. Where a SMILES comes first, the peptide text is derived from it. Bridges are numbered along the chain shown (N, C = ends). [ ]: non-standard residue; d: D form. The star is where a group is joined. Ethylenediamine = C(CN[*:2])N[*:1]; Pen = CC(C)(S)[C@H](N)C(=O)O; Orn = NCCC[C@H](N)C(=O)O; NH(CH2)5NH2 = NCCCCCN*; NH(CH2)4NH2 = NCCCCN*; NH(CH2)3NH2 = NCCCN*

T1 sequence (P08514 32-887 limits assumed): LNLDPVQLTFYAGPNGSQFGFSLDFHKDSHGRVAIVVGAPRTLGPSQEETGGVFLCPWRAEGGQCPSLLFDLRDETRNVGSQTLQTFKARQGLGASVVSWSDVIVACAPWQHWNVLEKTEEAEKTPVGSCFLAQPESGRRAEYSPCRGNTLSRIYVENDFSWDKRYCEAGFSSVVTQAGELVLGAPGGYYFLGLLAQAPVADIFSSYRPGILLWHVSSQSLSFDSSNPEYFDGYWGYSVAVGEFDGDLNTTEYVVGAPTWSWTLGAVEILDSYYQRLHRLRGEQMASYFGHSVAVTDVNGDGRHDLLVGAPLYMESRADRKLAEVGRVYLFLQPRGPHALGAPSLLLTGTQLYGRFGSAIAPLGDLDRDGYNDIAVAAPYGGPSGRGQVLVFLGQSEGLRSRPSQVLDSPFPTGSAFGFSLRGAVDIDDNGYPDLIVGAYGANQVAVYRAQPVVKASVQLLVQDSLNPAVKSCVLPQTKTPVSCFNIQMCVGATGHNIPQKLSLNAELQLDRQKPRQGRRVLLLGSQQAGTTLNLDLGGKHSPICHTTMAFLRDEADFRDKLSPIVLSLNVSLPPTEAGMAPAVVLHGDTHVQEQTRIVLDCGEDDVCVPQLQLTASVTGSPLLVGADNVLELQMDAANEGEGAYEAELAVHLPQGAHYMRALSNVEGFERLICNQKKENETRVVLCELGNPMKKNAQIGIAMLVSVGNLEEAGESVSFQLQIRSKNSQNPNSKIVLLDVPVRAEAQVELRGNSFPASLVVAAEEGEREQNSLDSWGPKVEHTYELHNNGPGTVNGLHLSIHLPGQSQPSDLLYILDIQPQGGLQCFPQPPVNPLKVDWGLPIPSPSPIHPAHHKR
T1 sequence (P08514 891-1039 partner limits assumed): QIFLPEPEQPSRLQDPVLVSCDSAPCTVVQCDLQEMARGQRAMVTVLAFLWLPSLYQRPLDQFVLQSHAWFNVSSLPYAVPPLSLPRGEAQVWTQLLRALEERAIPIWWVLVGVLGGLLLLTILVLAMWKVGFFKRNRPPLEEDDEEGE
T1 sequence (P05106 27-788): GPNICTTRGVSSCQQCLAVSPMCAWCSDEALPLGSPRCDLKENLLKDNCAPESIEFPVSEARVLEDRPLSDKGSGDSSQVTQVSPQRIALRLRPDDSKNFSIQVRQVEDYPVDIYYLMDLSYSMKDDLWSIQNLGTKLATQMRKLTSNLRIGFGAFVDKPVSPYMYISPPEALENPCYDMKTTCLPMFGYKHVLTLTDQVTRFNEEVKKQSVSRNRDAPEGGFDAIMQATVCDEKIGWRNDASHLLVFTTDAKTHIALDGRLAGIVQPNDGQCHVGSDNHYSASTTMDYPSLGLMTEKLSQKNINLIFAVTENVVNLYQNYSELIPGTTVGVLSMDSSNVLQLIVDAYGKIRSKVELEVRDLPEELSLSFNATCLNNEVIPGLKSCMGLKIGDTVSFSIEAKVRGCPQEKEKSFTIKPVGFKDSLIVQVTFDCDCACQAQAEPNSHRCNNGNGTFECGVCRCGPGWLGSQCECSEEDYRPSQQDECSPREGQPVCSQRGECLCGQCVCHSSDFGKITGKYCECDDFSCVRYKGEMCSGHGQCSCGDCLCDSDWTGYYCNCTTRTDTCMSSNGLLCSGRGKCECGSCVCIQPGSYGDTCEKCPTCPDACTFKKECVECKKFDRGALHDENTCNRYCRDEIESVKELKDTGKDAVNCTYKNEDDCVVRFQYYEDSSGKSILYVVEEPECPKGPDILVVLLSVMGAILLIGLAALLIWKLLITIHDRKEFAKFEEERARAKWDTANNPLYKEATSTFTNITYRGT

As to `N=C(N)NCCC[C@@H]1NC(=O)[C@@H](Cc2ccc(O)cc2)NC(=O)CSC[C@@H](C(=O)O)NC(=O)[C@H](CC(=O)O)NC(=O)CNC1=O` [7/46, cyclo-S-acetyl-dTyr--Arg--Gly--Asp--Cys--OH] ({CH2CO}-[dY]RGDC-OH; thioether N-5), the “cutaneous bleeding time, result in words” value in data set [1] was “prolongation of bleeding time in vivo in both the rabbit and dog model”. In addition, the “increase of cutaneous bleeding time compared to the undosed animal” value in data set [1] (rabbit, dose sufficient to achieve about 97% inhibition of platelet aggregation) was found to be 8.0 times. Also, the IC50 at GP IIb IIIa [2] stood at 3.2 nM; on GP IIb IIIa [3], 0.18 nM.
`N=C(N)NCCC[C@@H]1NC(=O)[C@@H](Cc2ccc(O)cc2)NC(=O)CSC[C@@H](C(=O)NCCCN)NC(=O)[C@H](CC(=O)O)NC(=O)CNC1=O` [8/22, cyclo-S-acetyl-dTyr--Arg--Gly--Asp--Cys--NH--X (X = propyl amine)] ({CH2CO}-[dY]RGDC-{NH(CH2)3NH2}; thioether N-5): the “Rabbit BT Ratio” value in data set [1] (rabbit) turned out to be 1.27. Further, the half-inhibitory concentration (IC50) on GP IIb IIIa [2] came to 15 nM; on GP IIb IIIa [3], 4.73 nM.
The like results for `N=C(N)NCCC[C@@H]1NC(=O)[C@@H](Cc2ccc(O)cc2)NC(=O)CSC[C@@H](C(=O)NCCCCN)NC(=O)[C@H](CC(=O)O)NC(=O)CNC1=O` [8/12, cyclo-S-acetyl-dTyr--Arg--Gly--Asp--Cys--NH--X (X = butylamine)] ({CH2CO}-[dY]RGDC-{NH(CH2)4NH2}; thioether N-5) were, in that order, 0.94, 10 nM and 5.4 nM.
The like results for `N=C(N)NCCC[C@@H]1NC(=O)[C@@H](Cc2ccc(O)cc2)NC(=O)CSC[C@@H](C(=O)NCCN)NC(=O)[C@H](CC(=O)O)NC(=O)CNC1=O` [8/23, cyclo-S-acetyl-dTyr--Arg--Gly--Asp--Cys--NH--X (X = ethyl amine)] ({CH2CO}-[dY]RGDC-Ethylenediamine; thioether N-5) were, in that order, 0.81, 14 nM and 4.67 nM.
The like results for `N=C(N)NCCC[C@@H]1NC(=O)[C@@H](Cc2ccc(O)cc2)NC(=O)CSC[C@@H](C(=O)NCCCCCN)NC(=O)[C@H](CC(=O)O)NC(=O)CNC1=O` [8/13, cyclo-S-acetyl-dTyr--Arg--Gly--Asp--Cys--NH--X (X = pentylamine)] ({CH2CO}-[dY]RGDC-{NH(CH2)5NH2}; thioether N-5) were, in that order, 1.13, 9 nM and 5.3 nM.
With `N=C(N)NCCC[C@@H]1NC(=O)[C@@H](Cc2ccc(O)cc2)NC(=O)CSC[C@@H](C(=O)N[C@@H](CCCN)C(N)=O)NC(=O)[C@H](CC(=O)O)NC(=O)CNC1=O` [7/5, cyclo-S-acetyl-dTyr--Arg--Gly--Asp--Cys--Orn--NH2] ({CH2CO}-[dY]RGDC[Orn]-NH2; thioether N-5), the “Rabbit BT Ratio” value in data set [1] (rabbit) was determined as 1.26. Moreover, the IC50 is 11 nM on GP IIb IIIa [2] and 6.84 nM at GP IIb IIIa [3].
Turning to `N=C(N)NCCC[C@@H]1NC(=O)[C@@H](Cc2ccc(O)cc2)NC(=O)CSC[C@@H](C(=O)N[C@@H](CCCCN)C(N)=O)NC(=O)[C@H](CC(=O)O)NC(=O)CNC1=O` [7/3, cyclo-S-acetyl-dTyr--Arg--Gly--Asp--Cys--Lys--NH2] ({CH2CO}-[dY]RGDCK-NH2; thioether N-5), the “increase in cutaneous bleeding time” value in data set [1] (dosed to 95% inhibition of platelet aggregation) is on record as 1.95 times. For the same compound, in data set [1] (rabbit), the “Rabbit BT Ratio” value amounted to 1.95. The half-inhibitory concentration (IC50) on GP IIb IIIa [2] was found to be 17 nM; on GP IIb IIIa [3], 15.9 nM.
On to `CC1(C)SCC(=O)N[C@H](Cc2ccc(O)cc2)C(=O)N[C@@H](CCCCN)C(=O)NCC(=O)N[C@@H](CC(=O)O)C(=O)N[C@@H]1C(=O)N[C@@H](CCCCN)C(N)=O` [7/17, cyclo-S-acetyl-dTyr--Lys--Gly--Asp--Pen--Lys--NH2] ({CH2CO}-[dY]KGD[Pen]K-NH2; thioether N-5), for which, in data set [1], the “cutaneous bleeding time, result in words” value is recorded as “without substantial increased cutaneous bleeding time”. The “Rabbit BT Ratio” value in data set [1] (rabbit) is 1.13 and 1.0. Also, the values for the IC50 at GP IIb IIIa [2] and on GP IIb IIIa [3] were 238 nM and 73.1 nM, respectively.

The values above are taken from patent US5493007A, “Platelet aggregation inhibitors having high specificity for GPIIBIIIA” (Genentech, Inc., priority 1994, dated 1996).
